# US20230234938A1 (RHIZEN PHARMACEUTICALS AG, priority 2020, published 2023)
# Like-named read-outs stand apart in the source and are kept apart here.
# What was measured:
# PARP2 = PARP2 (Homo sapiens, UniProt Q9UGN5); assay: PARP enzyme assay (PARP2); assay type: biochemical
# Text: Step 2: Ribosylation Reaction
# PAR in UWB 1.289 cells = assay: PAR inhibition in UWB 1.289 cells (western blot); assay type: cell-based, human; conditions: for PAR % inhibition in UWB 1.289 @ 10 nM: 0.01 µM; for inhibition at 0.01 µM: Homo sapiens
# Method: Example-3 UWB 1.289 cells were plated at a predetermined density in a 6-well plate in its respective media and plates were incubated at 37° C. and 5% CO2 overnight. After overnight incubation, the plates were treated with desired concentrations of the compound or DMSO and the plates were incubated at 37° C. and 5% CO2 as required for 24 hours. After completion of 24 hours incubation, total cell lysates were prepared from the treated samples. Lysates were analysed by western-blot analysis and probed with Human PAR specific monoclonal antibody or human specific beta-actin monoclonal antibody (loading control). Western-blot images were developed after exposing them to chemiluminescent substrate and images were captured on imaging system. Target specific bands and loading specific bands were measured using densitometric analysis. Densitometric values of target specific bands were normalized to loading control values. % inhibition of PAR was calculated relative to DMSO treated samples. Results: % inhibitions values are given below in Table-2: […]
# PARP1 = PARP1 (Homo sapiens, UniProt P09874); assay: PARP enzyme assay (PARP1, chemiluminescent histone ribosylation); conditions: for % inhibition 10 nM / % inhibition 100 nM: PARP enzyme assay; for % inhibition 10 nM: 10 nM compound; for % inhibition 100 nM: 100 nM compound
# Method: 1) Coat 25 µL of histone solution onto a 384-well plate as described below: • Dilute 5x histone mixture 1:5 with PBS. • Add 25 µL of diluted histone solution to each well and incubate at 4° C. overnight. • Wash the plate three times using 100 µL PBST buffer (1x PBS containing 0.05% Tween20) per well. • Tap plate onto clean paper towel to remove liquid. • Block the wells by adding 100 µL of Blocking buffer 3 to every well. Incubate at room temperature for 1 h 15 minutes. • Wash plate three times with 100 µL PBST buffer as described above. • Tap plate onto clean paper towel to remove liquid.
# 1) Preparation of 1X PARP Buffer: • Prepare 1x PARP buffer by adding 1 part of 10x PARP buffer to 9 parts distilled water (v/v). To prepare 500 µL of 1X PARP buffer, add 50 µL 10X PARP Assay buffer to 450 µL of H2O and mix well.
# 2) Preparation of the Ribosylation master mixture: • N wells x (1.25 µL 10x PARP buffer + 1.25 µL 10X PARP Assay mixture + 2.5 µL Activated DNA + 7.5 µL distilled water). Add 12.5 µL to every well.
# 3) Preparation of the inhibitor solution: • 10 mM stock solution of the inhibitor was prepared in DMSO. From 10 mM stock solution, 250X concentrations of the inhibitor were made in DMSO. • 250X DMSO concentrations of the inhibitor were further diluted to 10X concentrations in 1X kinase buffer. • 2.5 µL (10X concentrations) of kinase buffer containing inhibitor was added to each well. • For the “Positive Control” and “Blank”, add 2.5 µL of kinase buffer containing DMSO (4%) was added. • The final DMSO concentration in the well was 0.4 %.
# 4) Preparation of the enzyme solution: • Thaw PARP1 enzyme on ice. Upon first thaw, briefly spin tube containing enzyme to recover full content of the tube. Calculate the amount of PARP1 required for the assay and dilute enzyme to 2.0 ng/µL with 1x PARP buffer. • Initiate reaction by adding 10 µL of diluted PARP1 enzyme to the wells designated “Positive Control” and “Test Inhibitor”. • To the wells designated as “Blank”, add 10 µL of 1X PARP buffer. • Centrifuge the plate at 1000 rpm for 30 seconds and incubate at room temperature for 60 min. • Discard the reaction mixture after 1 hour, and wash plate three times with 100 µL PBST buffer and tap plate onto clean paper towel as described above.
# 1) Preparation of Streptavidin-HRP: • Dilute Streptavidin-HRP 1:50 in Blocking buffer. • Add 25 µL of diluted Streptavidin-HRP to each well. Incubate for 30 min. at room temperature. • Wash three times with 100 µL PBST buffer and tap plate onto clean paper towel as above as described above.
# 2) Preparation of ECL substrate: • Just before use, mix on ice equal amounts of ELISA ECL Substrate A and ELISA ECL Substrate B and add 50 µL per well. • Immediately read the plate in microtiter-plate in Chemiluminescence setting. The “Blank” value is subtracted from all other values.
# [1] = UWB 1.289 cells, 10 nM, 24 hours, western blot relative to DMSO
# [2] = read-out: % inhibition 10 nM, PARP enzyme assay, 10 nM compound
# [3] = read-out: % inhibition 100 nM, PARP enzyme assay, 100 nM compound
# [4] = UWB1289, 24 h, read-out: PAR % inhibition in UWB 1.289 @ 10 nM, UWB 1.289 cells, 10 nM, 24 hours, western blot relative to DMSO
# [5] = UWB1289, read-out: PAR % inhibition in UWB 1.289 @ 10 nM, UWB 1.289 cells, 10 nM, 24 hours, western blot relative to DMSO
# Chain of PARP1 (P09874 whole entry, species assumed): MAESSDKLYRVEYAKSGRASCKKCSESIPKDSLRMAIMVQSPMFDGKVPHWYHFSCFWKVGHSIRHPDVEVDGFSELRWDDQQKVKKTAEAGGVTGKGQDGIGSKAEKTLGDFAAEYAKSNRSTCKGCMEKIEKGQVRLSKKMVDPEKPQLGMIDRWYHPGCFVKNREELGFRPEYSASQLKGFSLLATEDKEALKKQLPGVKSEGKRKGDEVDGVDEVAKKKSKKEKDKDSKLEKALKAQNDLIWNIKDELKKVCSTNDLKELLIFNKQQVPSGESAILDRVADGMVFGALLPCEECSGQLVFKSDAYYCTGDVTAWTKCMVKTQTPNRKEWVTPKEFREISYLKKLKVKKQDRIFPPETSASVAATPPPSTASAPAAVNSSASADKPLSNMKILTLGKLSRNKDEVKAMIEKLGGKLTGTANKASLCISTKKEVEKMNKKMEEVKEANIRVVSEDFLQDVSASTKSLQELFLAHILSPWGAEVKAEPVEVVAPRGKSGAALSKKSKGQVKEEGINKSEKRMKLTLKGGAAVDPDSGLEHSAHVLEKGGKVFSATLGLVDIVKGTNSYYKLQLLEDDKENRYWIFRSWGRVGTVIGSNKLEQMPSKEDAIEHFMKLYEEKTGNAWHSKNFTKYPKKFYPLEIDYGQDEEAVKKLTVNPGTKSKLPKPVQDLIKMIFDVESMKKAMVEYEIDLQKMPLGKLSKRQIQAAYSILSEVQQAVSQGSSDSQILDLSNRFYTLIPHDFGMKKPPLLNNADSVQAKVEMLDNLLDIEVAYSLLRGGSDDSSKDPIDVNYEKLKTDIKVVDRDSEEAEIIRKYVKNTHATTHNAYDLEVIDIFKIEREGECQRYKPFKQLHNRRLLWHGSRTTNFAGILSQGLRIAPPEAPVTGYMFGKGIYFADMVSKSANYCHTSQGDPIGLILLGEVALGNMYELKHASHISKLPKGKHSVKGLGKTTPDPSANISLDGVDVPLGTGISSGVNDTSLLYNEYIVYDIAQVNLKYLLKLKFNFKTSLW
# Chain of PARP2 (Q9UGN5 whole entry, species assumed): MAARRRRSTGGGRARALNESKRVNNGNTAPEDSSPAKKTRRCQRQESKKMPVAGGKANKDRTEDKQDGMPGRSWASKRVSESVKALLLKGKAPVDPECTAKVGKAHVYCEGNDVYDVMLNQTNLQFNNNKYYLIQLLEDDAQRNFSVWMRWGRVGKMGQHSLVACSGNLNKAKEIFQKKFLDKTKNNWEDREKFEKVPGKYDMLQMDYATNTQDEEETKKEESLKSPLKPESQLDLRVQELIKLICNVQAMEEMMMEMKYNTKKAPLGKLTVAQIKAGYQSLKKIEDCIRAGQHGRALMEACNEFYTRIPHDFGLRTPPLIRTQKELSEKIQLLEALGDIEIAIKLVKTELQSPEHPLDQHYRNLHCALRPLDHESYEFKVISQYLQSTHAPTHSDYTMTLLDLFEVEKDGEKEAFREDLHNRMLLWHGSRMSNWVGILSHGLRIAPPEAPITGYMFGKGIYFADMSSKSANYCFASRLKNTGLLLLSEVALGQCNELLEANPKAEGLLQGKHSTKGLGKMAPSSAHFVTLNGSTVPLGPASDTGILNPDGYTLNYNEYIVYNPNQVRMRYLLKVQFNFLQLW
SMILES,IC50 (PARP2) [nM],melting point [°C],PAR % inhibition in UWB 1.289 @ 10 nM (PAR in UWB 1.289 cells; [1]),IC50 (PARP1) [nM],also measured
"CC1(O)C(=O)N(c2cncc(Cc3n[nH]c(=O)c4cc(F)ccc34)c2)c2ccccc21 (single isomer, unassigned; (+)) [Example 7, (+)-7-Fluoro-4-((5-(3-hydroxy-3-methyl-2-oxoindolin-1-yl)pyridin-3-yl)methyl)phthalazin-1(2H)-one]",< 10,148 to 151,A (A represents >75% to 100%),–,–
"CC1(O)C(=O)N(c2cncc(Cc3n[nH]c(=O)c4cc(F)ccc34)c2)c2ccc(F)cc21 (single isomer, unassigned; (+)) [Example 11, (+)-7-Fluoro-4-((5-(5-fluoro-3-hydroxy-3-methyl-2-oxoindolin-1-yl)pyridin-3-yl)methyl)phthalazin-1(2H)-one]",< 10,148 to 151,A (A represents >75% to 100%),< 10,inhibition at 0.01 µM (PARP1; [2]): 75 to 100%; inhibition at 0.1 µM (PARP1; [3]): 75 to 100%
"CC1(O)C(=O)N(c2cncc(Cc3n[nH]c(=O)c4ccccc34)c2)c2ccc(F)cc21 (single isomer, unassigned; (+)) [Example 14, (+)-4-((5-(5-Fluoro-3-hydroxy-3-methyl-2-oxoindolin-1-yl)pyridin-3-yl)methyl)phthalazin-1(2H)-one]",< 10,198 to 201,A (A represents >75% to 100%),< 10,% inhibition 10 nM (PARP1; 0.01 µM): B (B represents >50% to ≤75%); inhibition at 0.1 µM (PARP1; [3]): 75 to 100%
"CC1(O)C(=O)N(c2cc(Cc3n[nH]c(=O)c4ccccc34)ccn2)c2ccccc21 (single isomer, unassigned; (+)) [Example 20, (+)-4-((2-(3-Hydroxy-3-methyl-2-oxoindolin-1-yl)pyridin-4-yl)methyl)phthalazin-1(2H)-one]",< 10,205 to 208,–,–,% inhibition 10 nM (PARP1): A (A represents >75% to 100%); % inhibition 100 nM (PARP1): A (A represents >75% to 100%); IC50 (PARP1; read-out: IC50 (nM)-PARP1): < 10 nM; inhibition at 0.01 µM (PAR in UWB 1.289 cells; [4]): 50 to 75%
"CC1(O)C(=O)N(c2cc(Cc3n[nH]c(=O)c4cc(F)ccc34)ccn2)c2ccccc21 (single isomer, unassigned; (+)) [Example 23, (+)-7-Fluoro-4-((2-(3-hydroxy-3-methyl-2-oxoindolin-1-yl)pyridin-4-yl)methyl)phthalazin-1(2H)-one]",< 10,167 to 170,D (D represents ≤25%),–,–
"CC1(O)C(=O)N(c2cncc(Cc3n[nH]c(=O)c4cc(F)ccc34)c2)c2ccccc21 (single isomer, unassigned; (-)) [Example 8, (-)-7-Fluoro-4-((5-(3-hydroxy-3-methyl-2-oxoindolin-1-yl)pyridin-3-yl)methyl)phthalazin-1(2H)-one]",< 10,138 to 141,C (C represents >25% to ≤50%),–,–
"CC1(O)C(=O)N(c2cncc(Cc3n[nH]c(=O)c4cc(F)ccc34)c2)c2ccc(F)cc21 (single isomer, unassigned; (-)) [Example 12, (-)-7-Fluoro-4-((5-(5-fluoro-3-hydroxy-3-methyl-2-oxoindolin-1-yl)pyridin-3-yl)methyl)phthalazin-1(2H)-one]",< 10,154 to 157,D (D represents ≤25%),–,% inhibition 10 nM (PARP1): A (A represents >75% to 100%); % inhibition 100 nM (PARP1): A (A represents >75% to 100%); IC50 (PARP1; read-out: IC50 (nM)-PARP1): < 10 nM
"CC1(O)C(=O)N(c2cncc(Cc3n[nH]c(=O)c4ccccc34)c2)c2ccc(F)cc21 (single isomer, unassigned; (-)) [Example 15, (-)-4-((5-(5-Fluoro-3-hydroxy-3-methyl-2-oxoindolin-1-yl)pyridin-3-yl)methyl)phthalazin-1(2H)-one]",< 10,197 to 200,D (D represents ≤25%),–,% inhibition 10 nM (PARP1; 0.01 µM): A (A represents >75% to 100%); % inhibition 100 nM (PARP1): A (A represents >75% to 100%); IC50 (PARP1; read-out: IC50 (nM)-PARP1): < 10 nM
"CC1(O)C(=O)N(c2cc(Cc3n[nH]c(=O)c4ccccc34)ccn2)c2ccccc21 (single isomer, unassigned; (-)) [Example 19, (-)-4-((2-(3-Hydroxy-3-methyl-2-oxoindolin-1-yl)pyridin-4-yl)methyl)phthalazin-1(2H)-one]",< 10,207 to 210,–,< 10,inhibition at 0.01 µM (PARP1; [2]): 75 to 100%; inhibition at 0.1 µM (PARP1; [3]): 75 to 100%
"CC1(O)C(=O)N(c2cc(Cc3n[nH]c(=O)c4cc(F)ccc34)ccn2)c2ccccc21 (single isomer, unassigned; (-)) [Example 22, (-)-7-Fluoro-4-((2-(3-hydroxy-3-methyl-2-oxoindolin-1-yl)pyridin-4-yl)methyl)phthalazin-1(2H)-one]",< 10,165 to 168,–,–,inhibition at 0.01 µM (PAR in UWB 1.289 cells; [4]): 25 to 50%
"CC1(O)C(=O)N(c2cncc(Cc3n[nH]c(=O)c4ccccc34)c2)c2ccccc21 (centres unmarked) [Example 1, 4-((5-(3-Hydroxy-3-methyl-2-oxoindolin-1-yl)pyridin-3-yl)methyl)phthalazin-1(2H)-one]",< 10,110 to 113,–,< 10,inhibition at 0.01 µM (PARP1; read-out: % inhibition 10 nM): 75 to 100%; inhibition at 0.1 µM (PARP1; read-out: % inhibition 100 nM): 75 to 100%; inhibition at 0.01 µM (PAR in UWB 1.289 cells; [5]): 50 to 75%
"C[C@]1(O)C(=O)N(c2cncc(Cc3n[nH]c(=O)c4ccccc34)c2)c2ccccc21 [Example 2, (R)-(+)-4-((5-(3-Hydroxy-3-methyl-2-oxoindolin-1-yl)pyridin-3-yl)methyl)phthalazin-1(2H)-one]",< 10,–,–,< 10,inhibition at 0.01 µM (PAR in UWB 1.289 cells; [4]): 75 to 100%
"C[C@@]1(O)C(=O)N(c2cncc(Cc3n[nH]c(=O)c4ccccc34)c2)c2ccccc21 [Example 3, (S)-(-)-4-((5-(3-Hydroxy-3-methyl-2-oxoindolin-1-yl)pyridin-3-yl)methyl)phthalazin-1(2H)-one]",< 10,94 to 97,–,< 10,inhibition at 0.01 µM (PAR in UWB 1.289 cells; [4]): < 25%
"CC1(O)C(=O)N(c2cncc(Cc3n[nH]c(=O)c4ccccc34)c2)c2ccc(F)cc21 (centres unmarked) [Example 13, 4-((5-(5-Fluoro-3-hydroxy-3-methyl-2-oxoindolin-1-yl)pyridin-3-yl)methyl)phthalazin-1(2H)-one]",< 10,116 to 120,–,< 10,inhibition at 0.01 µM (PARP1; read-out: % inhibition 10 nM): 75 to 100%; inhibition at 0.1 µM (PARP1; read-out: % inhibition 100 nM): 75 to 100%
"CC1(O)C(=O)N(c2cc(Cc3n[nH]c(=O)c4ccccc34)ccn2)c2ccccc21 (centres unmarked) [Example 18, 4-((2-(3-hydroxy-3-methyl-2-oxoindolin-1-yl)pyridin-4-yl)methyl)phthalazin-1(2H)-one]",< 10,203 to 205,–,< 10,inhibition at 0.01 µM (PARP1; read-out: % inhibition 10 nM): 75 to 100%; inhibition at 0.1 µM (PARP1; read-out: % inhibition 100 nM): 75 to 100%
"CC1(O)C(=O)N(c2cc(Cc3n[nH]c(=O)c4cc(F)ccc34)ccn2)c2ccccc21 (centres unmarked) [Example 21, 7-Fluoro-4-((2-(3-hydroxy-3-methyl-2-oxoindolin-1-yl)pyridin-4-yl)methyl)phthalazin-1(2H)-one]",> 10,187 to 189,–,–,inhibition at 0.01 µM (PAR in UWB 1.289 cells; [5]): 25 to 50%
"CC1(O)C(=O)N(c2cc(Cc3n[nH]c(=O)c4cc(F)ccc34)ccn2)c2ccc(F)cc21 (centres unmarked) [Example 24, 7-Fluoro-4-((2-(5-fluoro-3-hydroxy-3-methyl-2-oxoindolin-1-yl)pyridin-4-yl)methyl)phthalazin-1(2H)-one]",< 10,225 to 228,–,< 10,inhibition at 0.01 µM (PAR in UWB 1.289 cells; [5]): 25 to 50%
"O=C1N(c2cncc(Cc3n[nH]c(=O)c4ccccc34)c2)c2ccccc2C1(O)C(F)(F)F (centres unmarked) [Example 25, 4-((5-(3-Hydroxy-2-oxo-3-(trifluoromethyl)indolin-1-yl)pyridin-3-yl)methyl)phthalazin-1(2H)-one]",< 10,258 to 260,–,< 10,inhibition at 0.01 µM (PARP1; read-out: % inhibition 10 nM): 75 to 100%; inhibition at 0.1 µM (PARP1; read-out: % inhibition 100 nM): 75 to 100%; inhibition at 0.01 µM (PAR in UWB 1.289 cells; [5]): 25 to 50%
